Test: Plasma pharmacokinetics after single […] IV infusion of nacubactam 2 g coadministered with meropenem 2 g (Phase 1)
Assay type: in vivo, healthy adult male and female volunteers
Conditions: n = 21, geometric mean (CV%), 2 g nacubactam + 2 g meropenem IV
Procedure: The study consisted of a screening visit (Days −28 to −1), a treatment and sampling period (Day 1), and a safety follow-up visit (Days 7–14). […] The two drugs were administered concurrently as separate solutions through two separate lines via a large bore, double-lumen catheter, under the supervision of study personnel. […] While all participants received the same study drug treatment and followed the same blood sampling scheme, each individual was assigned to one of five possible timepoints (2, 3, 4, 6, or 8 h after the start of study drug administration) for the BAL procedure. Equal numbers of participants were assigned to each timepoint, and assignment of individual participants was at the discretion of the investigator. […] An additional plasma sample was taken at the same time as part of the BAL procedure to measure urea. The plasma samples were stored at −80°C pending analysis. […] PK parameters were estimated by non-compartmental analysis using Phoenix WinNonlin (version 6.4; Certara USA, Inc.) by Covance.

AUC0–8h: 275 (19) µg·h/mL
SMILES: NCCONC(=O)[C@@H]1CC[C@@H]2CN1C(=O)N2OS(=O)(=O)O [Nacubactam]

— paper PMC13231895 (Antimicrobial Agents and Chemotherapy, 2026)
